Measurements from US20020044943A1, “MUC-1 as an immunosuppressive therapeutic agent for the treatment of inflammatory and autoimmune conditions” (priority 1997, published 2002).

Key:
[1] = molecular target: T1, recombinant human ICAM-1-Ig fusion protein (Homo sapiens, UniProt P05362); test: Tumor cell-immobilized ICAM-1 adhesion assay; format: cell-based; conditions: antibodies 10 or 20 ug/mL, soluble MUC-1 10 ug/mL
T1 construct: coated with 50 uL of a solution with 20 ug/mL recombinant soluble ICAM-1 in PBS; Ig (immunoglobulin) fusion partner
T1 sequence (P05362 28-480 limits assumed): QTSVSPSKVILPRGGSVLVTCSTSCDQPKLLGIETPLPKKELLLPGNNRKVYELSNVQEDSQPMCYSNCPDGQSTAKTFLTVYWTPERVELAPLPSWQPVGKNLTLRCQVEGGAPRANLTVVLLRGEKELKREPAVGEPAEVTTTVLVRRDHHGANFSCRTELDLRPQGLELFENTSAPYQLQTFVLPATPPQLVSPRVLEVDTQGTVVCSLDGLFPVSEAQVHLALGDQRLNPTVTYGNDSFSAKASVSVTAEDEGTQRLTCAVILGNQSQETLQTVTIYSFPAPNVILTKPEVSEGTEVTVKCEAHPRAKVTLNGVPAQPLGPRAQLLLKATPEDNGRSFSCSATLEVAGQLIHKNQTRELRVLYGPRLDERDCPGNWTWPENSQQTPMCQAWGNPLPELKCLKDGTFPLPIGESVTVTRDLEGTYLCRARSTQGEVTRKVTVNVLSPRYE
Description: 96 well tissue culture plates were coated with 50 uL of a solution with 20 ug/mL recombinant soluble ICAM-1 in PBS for 1 hr at room temperature. Wells were then blocked with 1% BSA for 2 hr at 37 C. and washed four times with PBS. Antibodies (10 ug/mL) (anti-ICAM-1 164B, 18E3D, 84H10, anti-E selectin 1.2B6) and soluble MUC-1 (10 ug/mL) were added to the wells for 90 min. at room temperature. Wells were then washed again before addition of cells. BCECF labeled tumor cells were pretreated +/− 20 ug/mL of anti-MUC-1 (B27.29, or DF3P) and were then added to the appropriate wells for 40 min. at 37 C. Wells were then washed and percent adhesion was then determined as described in the tumor cell—endothelial cell adhesion assay.
To exclude the possibility that adhesion was being mediated by endothelial molecules other than ICAM-1, the adhesion of the MUC-1 transfectants was studied using immobilized recombinant human ICAM-1-Ig fusion protein. Adhesion was compared to Bovine Serum Albumin and Collagen type I as controls.

Purified T cells = test: T cell proliferation assay (allo MLR, 3H-thymidine incorporation); format: cell-based, human; conditions: 10 ug/ml, allo PBL stimulated T cells
Description: Enriched T cell populations were purified from buffy coats obtained from normal red cross donors using nylon wool columns by previously reported procedures. […] For the allo MLR, mitomycin C treated allogeneic PBLs were cocultured with purified T cells in the presence or absence of affinity purified MUC-1 mucin or control OSM. In most of the experiments, the T cells were cultured 6-7 days in AIM V medium in the absence or presence of MUC-1, MUC-1 derivative or OSM at the indicated concentration. After this time, the T cells were harvested, washed and cultured as indicated.
Purified T cells (10^6/ml) were cultured in AIM V medium with allo PBLs in the absence or presence of MUC-1, MUC-1 derivative or OSM 10 ug/ml for 6-7 days. T cells were harvested and plated in 96 well flat bottom plates at 10^5/well with allo PBLs (10^5/well), in the presence or absence of affinity purified MUC-1, MUC-1 derivative or OSM. Control cultures were treated with either 50 U/ml IL-2 or 1 ug/ml anti-CD28 Mab. After 4 days of culture, ^3H-thymidine (1 uCi/well) was added. The cells were harvested on the fifth day and ^3H-thymidine incorporation was measured by liquid scintillation.
Synthetic peptides, as described in Example 8, corresponding to 3, 4, 5 or 6 MUC-1 repeats, were added at 10 ug/ml to allo cultures and T cell proliferation was measured at 14 days from the start of culture. […]

human T-cell cultures = test: Mixed lymphocyte reaction (allo-antigenic T-cell proliferation); format: cell-based; conditions: B27.29 affinity purified MUC-1 mucin, various doses, in vitro
Description: The mixed lymphocyte reaction is conducted by mixing the lymphocytes of HLA disparate individuals in in vitro tissue cultures. The “responder population” in this experiment is purified T-cells from one population, while the “stimulator” population in this experiment is the adherent antigen presenting cells obtained from an HLA mismatched individual donor. The two cell populations were mixed and cultured either in the presence or absence of various doses of B27.29 affinity purified MUC-1 mucin that was purified from a pleural effusion fluid.

GZ-Hi tumor cells = test: Tumor take after i.v. MUC-1 mucin and subcutaneous tumor challenge; format: in vivo; conditions: CB6 mice, MUC-1 mucin 20 micrograms i.v. on days -2, +2, +6; 1x10^6 GZ-Hi cells s.c.; observed 8 weeks
Description: The procedures employed in this example are similar to those described in Fung, et al. Cancer Research 51:1170-1176 (1991), which is hereby incorporated by reference. However, in the present example, the human MUC-1 system was used instead of the epiglycanin system.
CB6 mice were injected intravenously with MAb B27.29 affinity purified MUC-1 mucin (20 micrograms each treatment or approximately 400 units) prior to (day-2) and after (days +2 and +6) an attempted tumor challenge. Affinity purified mucin had been prepared by affinity adsorption on a B 27.29 CnBr-Sepharose matrix from a pleural effusion fluid obtained from a patient with adenocarcinoma of the ovaries. MUC-1 mucin treated and control mice were challenged with 1×10^6 GZ-Hi tumor cells injected into the subcutaneous space along the flank. Mice were observed by palpation and visual inspection at the injection site for the occurrence of tumors over a period of 8 weeks.

With “MUC-1: MAb B27.29 affinity purified human MUC-1 mucin from pleural effusion or ascites fluid of cancer patients” as the substance, how does the “inhibition of GZHi adhesion to immobilized ICAM-1” value [1] read?
The value was “equally effective at blocking adhesion”.

What about the “reduction of T cell proliferation relative to control” value (Purified T cells) of the same substance?
Its value is “inhibition of T cell proliferation”.

And the “inhibition of T-cell proliferation against a strong allo-antigenic stimulus” value (human T-cell cultures)?
Its value is “strongly inhibits”.

What about the “% Tumor Take” value (GZ-Hi tumor cells) of the same substance?
Its value is 100%.
